Values joined by “and” are separate entries in the source; they are usually repeats but may differ in a detail not shown here. Equal values may be shown once. Inconclusive results and toxic doses are left out.

The subject of the assay is L1210 leukemia ip in BDF1 mice, survival T/C. Put plainly: NCI In Vivo Anticancer Drug Screen. Data for tumor model L1210 Leukemia (intraperitoneal) in B6D2F1 (BDF1) mice. Conditions: endpoint: mean survival time, higher = longer survival. The gist of the method:
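Each compound was tested against a transplantable tumor grown in mice. The endpoint was survival, with treated animals benchmarked against vehicle controls as a simple ratio.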

Setting [1] is: dose: 100.0 mg/kg/injection, schedule: Q01DX009 (ip), vehicle: Klucel (hydroxypropylcellulose) (HPC).
Where [2] appears, read: dose: 100.0 mg/kg/injection, schedule: Q04DX003 (ip), vehicle: Klucel (hydroxypropylcellulose) (HPC).
Where [3] appears, read: dose: 200.0 mg/kg/injection, schedule: Q01DX009 (ip), vehicle: Klucel (hydroxypropylcellulose) (HPC).
[4] abbreviates: dose: 200.0 mg/kg/injection, schedule: Q04DX003 (ip), vehicle: Klucel (hydroxypropylcellulose) (HPC).
The mark [5] stands for this setting: dose: 100.0 mg/kg/injection, schedule: Q04DX003 (ip), vehicle: saline with Tween-80.
The mark [6] stands for this setting: dose: 200.0 mg/kg/injection, schedule: Q04DX003 (ip), vehicle: saline with Tween-80.
[7] abbreviates: dose: 400.0 mg/kg/injection, schedule: Q04DX003 (ip), vehicle: saline with Tween-80.
[8] abbreviates: dose: 100.0 mg/kg/injection, schedule: Q01DX001 (ip), vehicle: carboxymethylcellulose (CMC).
Setting [9] is: dose: 100.0 mg/kg/injection, schedule: Q01DX001 (ip), vehicle: saline.
Where [10] appears, read: dose: 200.0 mg/kg/injection, schedule: Q01DX001 (ip), vehicle: saline.
The mark [11] stands for this setting: dose: 400.0 mg/kg/injection, schedule: Q01DX001 (ip), vehicle: saline.

Regarding `CCOC(=O)C(C)NCc1ccccc1` (centres undefined), the T/C was 94 % of control under setting [1]; 98 % of control under setting [2]; 111 % of control under setting [3]; 93 % of control under setting [4]; 103 % of control (dose: 400.0 mg/kg/injection, schedule: Q01DX009 (ip), vehicle: Klucel (hydroxypropylcellulose) (HPC)); 96 % of control (dose: 400.0 mg/kg/injection, schedule: Q04DX003 (ip), vehicle: Klucel (hydroxypropylcellulose) (HPC)).

Turning to `CCCCNC(=O)C(C)S(=O)(=O)c1ccc(N)cc1` (centres undefined), the T/C runs as follows: under setting [5], 98 % of control; under setting [6], 96 % of control; under setting [7], 102 % of control.

Consider `CCCCCCCCNNC(=O)c1ccccc1`, for which the T/C under setting [8] is 95 % of control; the T/C (dose: 200.0 mg/kg/injection, schedule: Q01DX001 (ip), vehicle: carboxymethylcellulose (CMC)) is 97 % of control; the T/C (dose: 400.0 mg/kg/injection, schedule: Q01DX001 (ip), vehicle: carboxymethylcellulose (CMC)) is 92 % of control.

For `CC1=NOC(=O)C1C(C)(C)C1C(=O)ON=C1C` (centres undefined), the T/C reads like this: under setting [5], 101 % of control; under setting [6], 95 % of control; under setting [7], 101 % of control.

Turning to `O=C(Nc1ccc(I)cc1)c1ccc([N+](=O)[O-])cc1`, the T/C by setting is: (dose: 100.0 mg/kg/injection, schedule: Q04DX002 (ip), vehicle: Klucel (hydroxypropylcellulose) (HPC)) 99 % of control; (dose: 200.0 mg/kg/injection, schedule: Q04DX002 (ip), vehicle: Klucel (hydroxypropylcellulose) (HPC)) 101 % of control; (dose: 400.0 mg/kg/injection, schedule: Q04DX002 (ip), vehicle: Klucel (hydroxypropylcellulose) (HPC)) 115 % of control.

In the case of `CCc1ccc(C2=C(Cl)C(=O)C(c3ccc(CC)cc3)=C(Cl)C2=O)cc1`, the T/C (dose: 10.0 mg/kg/injection, schedule: Q01DX001 (ip), vehicle: carboxymethylcellulose (CMC)) was 100 % of control; the T/C (dose: 20.0 mg/kg/injection, schedule: Q01DX001 (ip), vehicle: carboxymethylcellulose (CMC)) is 100 % of control; the T/C (dose: 40.0 mg/kg/injection, schedule: Q01DX001 (ip), vehicle: carboxymethylcellulose (CMC)) was 102 % of control; the T/C (dose: 80.0 mg/kg/injection, schedule: Q01DX001 (ip), vehicle: carboxymethylcellulose (CMC)) is 100 % of control; the T/C under setting [8] is 88 % of control.

On to `Cc1ccc(CNC(=O)Nc2cccc(C(F)(F)F)c2)cc1C`, for which the T/C (dose: 100.0 mg/kg/injection, schedule: Q01DX009 (ip), vehicle: gum acacia) was 89 % of control and the T/C (dose: 200.0 mg/kg/injection, schedule: Q01DX009 (ip), vehicle: gum acacia) was 89 % of control.

As to `Nc1ccc2c(c1[N+](=O)[O-])C(=O)c1ccccc1C2=O`, the T/C is, setting by setting: under setting [9], 92 % of control; under setting [10], 95 % of control; under setting [11], 97 % of control.

On to `COC1OC(CN(CCCl)C(C)=O)C2OC(C)(C)OC12` (centres undefined), for which the T/C reads like this: (dose: 50.0 mg/kg/injection, schedule: Q04DX003 (ip), vehicle: saline) 96 % of control; (dose: 100.0 mg/kg/injection, schedule: Q04DX003 (ip), vehicle: saline) 94 % of control; (dose: 200.0 mg/kg/injection, schedule: Q04DX003 (ip), vehicle: saline) 92 % of control; (dose: 400.0 mg/kg/injection, schedule: Q04DX003 (ip), vehicle: saline) 100 % of control.

For `Brc1ccc2[nH]c3c(c2c1)CSCC3`, the T/C was 95 % of control (dose: 100.0 mg/kg/injection, schedule: Q01DX001 (ip), vehicle: saline with Tween-80); 111 % of control (dose: 200.0 mg/kg/injection, schedule: Q01DX001 (ip), vehicle: saline with Tween-80); 108 % of control (dose: 400.0 mg/kg/injection, schedule: Q01DX001 (ip), vehicle: saline with Tween-80).

`CSc1ccc(NC(=O)N(CCCl)N=O)cc1`: the T/C reads like this: (dose: 0.7 mg/kg/injection, schedule: Q01DX001 (ip), vehicle: carboxymethylcellulose (CMC)) 109 % of control; (dose: 1.5 mg/kg/injection, schedule: Q01DX001 (ip), vehicle: carboxymethylcellulose (CMC)) 112 % of control; (dose: 2.0 mg/kg/injection, schedule: Q01DX009 (ip), vehicle: other) 171 % of control; (dose: 2.6 mg/kg/injection, schedule: Q01DX009 (ip), vehicle: carboxymethylcellulose (CMC)) 113 % of control; (dose: 4.0 mg/kg/injection, schedule: Q01DX009 (ip), vehicle: carboxymethylcellulose (CMC)) 119 % of control; (dose: 4.0 mg/kg/injection, schedule: Q01DX009 (ip), vehicle: other) 180 % of control. For the same compound, the T/C (dose: 8.0 mg/kg/injection, schedule: Q01DX001 (ip), vehicle: other) is 208 % of control; the T/C (dose: 8.0 mg/kg/injection, schedule: Q01DX009 (ip), vehicle: other) is 170 % of control; the T/C (dose: 8.3 mg/kg/injection, schedule: Q01DX001 (ip), vehicle: carboxymethylcellulose (CMC)) is 175 % of control; the T/C (dose: 9.0 mg/kg/injection, schedule: Q01DX009 (ip), vehicle: carboxymethylcellulose (CMC)) is 156 % of control; the T/C (dose: 12.0 mg/kg/injection, schedule: Q01DX001 (ip), vehicle: other) is 194 % of control; the T/C (dose: 12.5 mg/kg/injection, schedule: Q01DX001 (ip), vehicle: carboxymethylcellulose (CMC)) was 187 % of control. In addition, the T/C reads like this: (dose: 18.0 mg/kg/injection, schedule: Q01DX001 (ip), vehicle: other) 101 % of control; (dose: 18.7 mg/kg/injection, schedule: Q01DX001 (ip), vehicle: carboxymethylcellulose (CMC)) 211 % of control; (dose: 25.0 mg/kg/injection, schedule: Q01DX001 (ip), vehicle: carboxymethylcellulose (CMC)) 94 % of control.

Take `C1CCC(C2=NC3CCCCC3SC2)CC1` (centres undefined): the T/C runs as follows: (dose: 100.0 mg/kg/injection, schedule: Q04DX002 (sc), vehicle: olive oil, sesame oil, peanut oil) 103 % of control; (dose: 200.0 mg/kg/injection, schedule: Q04DX002 (sc), vehicle: olive oil, sesame oil, peanut oil) 107 % of control; (dose: 400.0 mg/kg/injection, schedule: Q04DX002 (sc), vehicle: olive oil, sesame oil, peanut oil) 96 % of control.

With `CN=C(Nc1ccc(Cl)c(Cl)c1)C(C)C`, the T/C reads like this: (dose: 6.25 mg/kg/injection, schedule: Q04DX002 (ip), vehicle: DMSO) 98 % of control; (dose: 12.5 mg/kg/injection, schedule: Q04DX002 (ip), vehicle: DMSO) 95 % of control; (dose: 25.0 mg/kg/injection, schedule: Q04DX002 (ip), vehicle: DMSO) 94 % of control and 106 % of control; (dose: 44.0 mg/kg/injection, schedule: Q01DX Z (ip), vehicle: methylcellulose (MC)) 91 % of control; (dose: 50.0 mg/kg/injection, schedule: Q04DX002 (ip), vehicle: DMSO) 97 % of control; (dose: 66.0 mg/kg/injection, schedule: Q01DX Z (ip), vehicle: methylcellulose (MC)) 98 % of control. Besides, the T/C (dose: 100.0 mg/kg/injection, schedule: Q01DX Z (ip), vehicle: methylcellulose (MC)) was 101 % of control.

Regarding `CC(=O)OC1=C(C)CCCC(C)(C)C1`, the T/C runs as follows: (dose: 75.0 mg/kg/injection, schedule: Q01DX001 (ip), vehicle: other) 92 % of control; (dose: 150.0 mg/kg/injection, schedule: Q01DX001 (ip), vehicle: other) 92 % of control; (dose: 300.0 mg/kg/injection, schedule: Q01DX001 (ip), vehicle: other) 97 % of control.

In the case of `O=c1oc2ccc(Cl)cc2c2c1OC(c1ccccc1)CN2` (centres undefined), the T/C by setting is: (dose: 100.0 mg/kg/injection, schedule: Q01DX001 (ip), vehicle: Klucel (hydroxypropylcellulose) (HPC)) 96 % of control; (dose: 200.0 mg/kg/injection, schedule: Q01DX001 (ip), vehicle: Klucel (hydroxypropylcellulose) (HPC)) 90 % of control; (dose: 400.0 mg/kg/injection, schedule: Q01DX001 (ip), vehicle: Klucel (hydroxypropylcellulose) (HPC)) 91 % of control.

With `Cn1c(=O)c2ccccc2c2cc([N+](=O)[O-])ccc21`, the T/C is 93 % of control (dose: 50.0 mg/kg/injection, schedule: Q01DX009 (ip), vehicle: Klucel (hydroxypropylcellulose) (HPC)); 97 % of control under setting [1]; 90 % of control under setting [2]; 97 % of control under setting [3]; 94 % of control under setting [4].

For `O=[N+]([O-])c1ccc(O)c(C2OCCCO2)c1`, the T/C was 101 % of control under setting [9], 98 % of control under setting [10] and 101 % of control under setting [11].
